Assay results published in patent US20240158446A1, “CYCLIC COMPOUND HAVING SELECTIVE INHIBITORY ACTION ON KRAS OVER HRAS AND NRAS” (CHUGAI SEIYAKU KABUSHIKI KAISHA, priority 2021, published 2024).
Read-outs that look alike come from different tables or passages of the source. *1 amine or outer side, *2 acyl side, *3 side chain or, on linkers, in order; H or OH if unused. Where a SMILES comes first, the peptide text is derived from it. Bridges are numbered along the chain shown (N, C = ends). [ ]: non-standard residue; d: D form. The star is where a group is joined. hPhe(3-Cl-4-CF3) = N[C@@H](CCc1ccc(C(F)(F)F)c(Cl)c1)C(=O)O; NPrPhe(4-CF3) = CCCN[C@@H](Cc1ccc(C(F)(F)F)cc1)C(=O)O; X30 = C=CCCN([C@@H](Cc1ccc(C)cc1)C(=O)[*:2])[*:1]; NMeGly(cPent) = CN[C@H](C(=O)O)C1CCCC1; Pro(4,4-F2) = O=C(O)[C@@H]1CC(F)(F)CN1; NMeD = CN[C@@H](CC(=O)O)C(=O)O; NMeL = CN[C@@H](CC(C)C)C(=O)O; Azetidin(1-yl) = C1CN(*)C1; Morpholide = C1CN(*)CCO1; Ac5c = NC1(C(=O)O)CCCC1; Ac4c = NC1(C(=O)O)CCC1; Sar = CNCC(=O)O

Experiments:
[1] = molecular target: GDP-bound KRAS wild-type protein (Homo sapiens, UniProt P01116); assay: Binding to KRAS by surface plasmon resonance (SPR), Single Cycle Kinetics; conditions: GDP-bound KRAS wild-type protein, read-out: KRAS KD
[2] = molecular target: GDP-bound NRAS wild-type protein (Homo sapiens, UniProt P01111); assay: Binding to NRAS by surface plasmon resonance (SPR), Single Cycle Kinetics; conditions: SPR; for NRAS/KRAS (ratio of KD value for NRAS to KD value for KRAS): GDP-bound NRAS wild-type protein vs GDP-bound KRAS wild-type protein
[3] = molecular target: GDP-bound HRAS wild-type protein (Homo sapiens, UniProt P01112); assay: Binding to HRAS by surface plasmon resonance (SPR), Single Cycle Kinetics; conditions: SPR; for HRAS/KRAS (ratio of KD value for HRAS to KD value for KRAS): GDP-bound HRAS wild-type protein vs GDP-bound KRAS wild-type protein
[4] = SPR, Single Cycle Kinetics, 1:1 binding model
[5] = SPR Single Cycle Kinetics, 1:1 binding model

GDP-bound KRAS wild-type protein, sequence (P01116 whole entry): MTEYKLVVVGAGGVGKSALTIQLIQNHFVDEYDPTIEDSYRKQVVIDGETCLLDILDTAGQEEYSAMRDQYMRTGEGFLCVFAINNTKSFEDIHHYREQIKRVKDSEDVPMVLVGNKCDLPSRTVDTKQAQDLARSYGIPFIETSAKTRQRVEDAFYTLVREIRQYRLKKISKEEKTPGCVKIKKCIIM
GDP-bound NRAS wild-type protein, sequence (P01111 whole entry): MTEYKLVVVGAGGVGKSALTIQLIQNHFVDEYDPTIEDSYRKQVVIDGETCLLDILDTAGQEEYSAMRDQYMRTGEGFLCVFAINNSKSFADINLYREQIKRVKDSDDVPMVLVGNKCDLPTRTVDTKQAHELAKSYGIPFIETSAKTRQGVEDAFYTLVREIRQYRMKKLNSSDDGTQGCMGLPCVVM
GDP-bound HRAS wild-type protein, sequence (P01112 whole entry): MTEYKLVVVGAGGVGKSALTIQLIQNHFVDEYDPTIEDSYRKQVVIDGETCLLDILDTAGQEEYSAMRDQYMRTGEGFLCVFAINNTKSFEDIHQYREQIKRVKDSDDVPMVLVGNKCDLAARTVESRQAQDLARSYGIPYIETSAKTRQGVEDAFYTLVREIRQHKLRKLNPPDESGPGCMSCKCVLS

Kd ([1]; SPR, Single Cycle Kinetics) [nM] | Kd [1, 5] [nM] | Structure (SMILES) | NRAS/KRAS (ratio of KD value for NRAS to KD value for KRAS) [2] | HRAS/KRAS (ratio of KD value for HRAS to KD value for KRAS) [3] | also measured
0.12 | – | CCO[C@@H]1C[C@H]2C(=O)NC3(CC(C)(C)C3)C(=O)N(C)[C@@H](C3CCCC3)C(=O)N(C)[C@H](C(=O)N(C)CC)CC(=O)N(C)[C@H]3CCCCCc4ccc(cc4)C[C@@H](C(=O)N(C)CC(=O)N[C@@H](CCc4ccc(C(F)(F)F)c(OC)c4)C(=O)N2C1)N1CC/C=C\C[C@@H](C1=O)N(C)C(=O)CN(C)C(=O)[C@H]([C@@H](C)CC)NC3=O [PP2259] | A (a compound having 10 or more and less than 20 is denoted as A) | B (a compound having 3 or more and less than 10 is denoted as B) | –
0.057 | – | CCO[C@@H]1C[C@H]2C(=O)NC3(CC(C)(C)C3)C(=O)N(C)[C@@H](C3CCCC3)C(=O)N(C)[C@H](C(=O)N(C)C)CC(=O)N(C)[C@@H](CC(C)C)C(=O)N[C@@H]([C@@H](C)CC)C(=O)N(C)CC(=O)N(C)[C@H]3C/C=C\CCN(C3=O)[C@@H](Cc3ccc(C(F)(F)F)cc3)C(=O)N(C)CC(=O)N[C@@H](CCc3cc(F)c(C(F)(F)F)c(F)c3)C(=O)N2C1 [PP1650, (2S,8S,12R,14S,20S,23S,27S,30S,36S,38Z)-20-cyclopentyl-8-[2-[3,5-difluoro-4-(trifluoromethyl)phenyl]ethyl]-12-ethoxy-27-isobutyl-N,N,3′,3′,4,19,22,26,32,35-decamethyl-30-[(1S)-1-methylpropyl]-3,6,9,15,18,21,25,28,31,34,42-undecaoxo-2-[[4-(trifluoromethyl)phenyl]methyl]spiro[1,4,7,10,16,19,22,26,29,32,35-undecazatricyclo[34.5.1.0^10,14]dotetracont-38-ene-17,1′-cyclobutane]-23-carboxamide] | – | – | NRAS/KRAS (KD ratio) ([2]; ratio of KD for GDP-bound NRAS wild-type protein to KD for KRAS): A (a compound having 10 or more and less than 20 is denoted as A); HRAS/KRAS (KD ratio) ([3]; ratio of KD for GDP-bound HRAS wild-type protein to KD for KRAS): A (a compound having 10 or more and less than 20 is denoted as A)

The next lines start with the compound.

Structure (SMILES) | Kd ([1]; SPR, Single Cycle Kinetics) [nM] | Kd [1, 5] [nM] | NRAS/KRAS (ratio of KD value for NRAS to KD value for KRAS) [2] | HRAS/KRAS (ratio of KD value for HRAS to KD value for KRAS) [3] | also measured
CCO[C@@H]1C[C@H]2C(=O)NC3(CC(C)(C)C3)C(=O)N(C)[C@@H](C(CC)CC)C(=O)N(C)[C@H](C(=O)N(C)C)CC(=O)N(C)[C@@H](CC)C(=O)N[C@@H]([C@@H](C)CC)C(=O)N(C)CC(=O)N(C)[C@H]3C/C=C\CCN(C3=O)[C@@H](Cc3ccc(C)cc3)C(=O)N(C)CC(=O)N[C@@H](CCc3cc(F)c(C(F)(F)F)c(F)c3)C(=O)N2C1 [PP2147] | 0.33 | – | A (a compound having 10 or more and less than 20 is denoted as A) | B (a compound having 3 or more and less than 10 is denoted as B) | –
CC[C@H](C)[C@@H]1NC(=O)[C@H](CC2CC2)N(C)C(=O)C[C@@H](C(=O)N(C)C)N(C)C(=O)[C@H](C2CCCC2)N(C)C(=O)C2(CC(C)(C)C2)NC(=O)[C@@H]2C[C@@H](C(F)(F)F)CN2C(=O)[C@H](CCc2cc(F)c(C(F)(F)F)c(F)c2)NC(=O)CN(C)C(=O)[C@H](Cc2ccc(C(F)(F)F)cc2)N2CC/C=C\C[C@@H](C2=O)N(C)C(=O)CN(C)C1=O [PP1504] | – | – | – | – | Kd [1, 4]: 0.32 nM; NRAS/KRAS (ratio of KD value for NRAS to KD value for KRAS) ([2]; KD ratio class): A (a compound having 10 or more and less than 20 is denoted as A); HRAS/KRAS (ratio of KD value for HRAS to KD value for KRAS) ([3]; KD ratio class): A (a compound having 10 or more and less than 20 is denoted as A)
CCCN1C(=O)CN(C)C(=O)CN(C)C(=O)[C@H]([C@@H](C)CC)NC(=O)[C@H](CC(C)C)N(C)C(=O)C[C@@H](C(=O)N2CCC2)N(C)C(=O)[C@H](C2CCCC2)N(C)C(=O)C2(CCCC2)NC(=O)[C@@H]2CCCN2C(=O)[C@H](CCc2ccc(C(F)(F)F)c(Cl)c2)NC(=O)CN(C)C(=O)[C@@H]1Cc1ccc(C(F)(F)F)cc1 [PP0172] ([NMeL]I[Sar][Sar][NPrPhe(4-CF3)][Sar][hPhe(3-Cl-4-CF3)]P[Ac5c][NMeGly(cPent)][NMeD]-{Azetidin(1-yl)}; lactam N-11) | – | 0.13 | B (a compound having 3 or more and less than 10 is denoted as B) | C (A compound having a KD ratio of 0.1 or more and less than 3 is denoted as C) | –
CCO[C@@H]1C[C@H]2C(=O)NC3(CCC3)C(=O)N(C)[C@@H](C3CCCC3)C(=O)N(C)[C@H](C(=O)N(C)CCOC)CC(=O)N(C)[C@@H](CC(C)C)C(=O)N[C@@H]([C@@H](C)CC)C(=O)N(C)CC(=O)N(C)[C@H]3C/C=C\CCN(C3=O)[C@@H](Cc3ccc(C(F)(F)F)cc3)C(=O)N(C)CC(=O)N[C@@H](CCc3cc(F)c(C(F)(F)F)c(F)c3)C(=O)N2C1 [PP1317] | – | – | – | – | Kd [1, 4]: 0.094 nM; NRAS/KRAS (ratio of KD value for NRAS to KD value for KRAS) ([2]; KD ratio class): A (a compound having 10 or more and less than 20 is denoted as A); HRAS/KRAS (ratio of KD value for HRAS to KD value for KRAS) ([3]; KD ratio class): B (a compound having 3 or more and less than 10 is denoted as B)
CCCN1C(=O)CN(C)C(=O)CN(C)C(=O)[C@H]([C@@H](C)CC)NC(=O)[C@H](CC(C)C)N(C)C(=O)C[C@@H](C(=O)N2CCOCC2)NC(=O)[C@H](C2CCCC2)N(C)C(=O)C2(CCC2)NC(=O)[C@@H]2CC(F)(F)CN2C(=O)[C@H](CCc2ccc(C(F)(F)F)c(Cl)c2)NC(=O)CN(C)C(=O)[C@@H]1Cc1ccc(C(F)(F)F)cc1 [PP0322] ([NMeL]I[Sar][Sar][NPrPhe(4-CF3)][Sar][hPhe(3-Cl-4-CF3)][Pro(4,4-F2)][Ac4c][NMeGly(cPent)]D-Morpholide; lactam N-11) | – | 0.84 | B (a compound having 3 or more and less than 10 is denoted as B) | C (A compound having a KD ratio of 0.1 or more and less than 3 is denoted as C) | –
CCO[C@@H]1C[C@H]2C(=O)NC3(CCC3)C(=O)N(C)[C@@H](C3CCCC3)C(=O)N(C)[C@H](C(=O)N(C)C)CC(=O)N(C)[C@@H](CC)C(=O)N[C@@H]([C@@H](C)CC)C(=O)N(C)CC(=O)N(C)[C@H]3CCCCCN(C3=O)[C@@H](Cc3ccc(F)cc3C)C(=O)N(C)CC(=O)N[C@@H](CCc3cc(F)c(C(F)(F)F)c(F)c3)C(=O)N2C1 [PP0911] | 0.06 | – | B (a compound having 3 or more and less than 10 is denoted as B) | B (a compound having 3 or more and less than 10 is denoted as B) | –
C=CCCN1C(=O)CN(C)C(=O)CN(C)C(=O)[C@H]([C@@H](C)CC)NC(=O)[C@H](CC(C)C)N(C)C(=O)C[C@@H](C(=O)N2CCOCC2)N(C)C(=O)[C@H](C2CCCC2)N(C)C(=O)C2(CCCC2)NC(=O)[C@@H]2CCCN2C(=O)[C@H](CCc2ccc(C(F)(F)F)c(Cl)c2)NC(=O)CN(C)C(=O)[C@@H]1Cc1ccc(C)cc1 [PP0101] ([NMeL]I[Sar][Sar][X30][Sar][hPhe(3-Cl-4-CF3)]P[Ac5c][NMeGly(cPent)][NMeD]-Morpholide; lactam N-11) | – | 0.16 | B (a compound having 3 or more and less than 10 is denoted as B) | C (A compound having a KD ratio of 0.1 or more and less than 3 is denoted as C) | –
CCO[C@@H]1C[C@H]2C(=O)NC3(CCC3)C(=O)N(C)[C@@H](C3CCCC3)C(=O)N(C)[C@H](C(=O)N(C)C)CC(=O)N(C)[C@@H](COC)C(=O)N[C@@H]([C@@H](C)CC)C(=O)N3CC[C@H]3C(=O)N(C)[C@H]3CCCCCN(C3=O)[C@@H](Cc3ccc(C(F)(F)F)cc3)C(=O)N(C)CC(=O)N[C@@H](CCc3cc(F)c(C(F)(F)F)c(F)c3)C(=O)N2C1 [PP0864] | 0.49 | – | B (a compound having 3 or more and less than 10 is denoted as B) | B (a compound having 3 or more and less than 10 is denoted as B) | –
